Assay results as given in patent publication US20250188040A1, “PHARMACEUTICAL COMPOSITIONS COMPRISING WRN HELICASE INHIBITORS” (Vividion Therapeutics, Inc., priority 2022, published 2025).
Like-named read-outs stand apart in the source and are kept apart here.

Tests used:
[1] = biological target: T1, WRN C727 (Homo sapiens, UniProt Q14191); experiment: Target engagement, in vitro (lysate), OCI-AML2; type: binding; conditions: read-out: OCI-AML2 WRN C727 TE50 in vitro (lysate)
T1 construct: endogenous in cells; host or cells: OCI-AML2
In short: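 OCI-AML2 intact cells or lysates dosed with compound, then a cysteine-reactive probe; after trypsin digestion, probe-labelled peptides were streptavidin-enriched and quantified by nano-LC parallel reaction monitoring MS. Engagement (%) relative to DMSO controls.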

[2] = test system: SW480 cells; experiment: Cell growth assay (CellTiter-Glo 2.0), SW480 MSS cell line; conditions: Homo sapiens, SW480, 120 h, read-out: Cell Growth Inhibition GI50 SW480
Procedure: The effects of compound on cellular viability were determined using the CellTiter-Glo® 2.0 Luminescent Cell Viability Assay (Promega, Madison, WI).
SW480 cells were seeded at 1,000 cells per well in Eagle's Minimum Essential Medium (EMEM) with 10% FBS. Both cell lines were seeded in a volume of 50 μL medium per well. […] The concentration range was adjusted as needed for compounds of different potencies. The cells treated with compounds were incubated for 5 days at 37° C. in 5% CO2. […] The plate was then read on a Clariostar plate reader (BMG Labtech, Cary, NC) in luminescence mode. The previously measured baseline cell viability was subtracted from the luminescence value of each well, and cell viability (% of DMSO) was plotted as a function of log compound concentration. The EC50 was then calculated for each compound using Dotmatics Software (San Diego, CA).

[3] = test system: HCT 116 cells; experiment: Cell growth assay (CellTiter-Glo 2.0), HCT 116 MSI-H cell line; conditions: Homo sapiens, HCT-116, 120 h, read-out: Cell Growth Inhibition GI50 HCT-116
[4] = biological target: hWRN(519-1227)_C-H3CV-GFP-10His (Homo sapiens, UniProt Q14191); experiment: Helicase Assay for WRN Inhibition (ATP-dependent, fluorescence based)
[5] = WRN Helicase IC50, 30 min preincubation with ATP, 30 min reaction

T1 sequence (Q14191 whole entry): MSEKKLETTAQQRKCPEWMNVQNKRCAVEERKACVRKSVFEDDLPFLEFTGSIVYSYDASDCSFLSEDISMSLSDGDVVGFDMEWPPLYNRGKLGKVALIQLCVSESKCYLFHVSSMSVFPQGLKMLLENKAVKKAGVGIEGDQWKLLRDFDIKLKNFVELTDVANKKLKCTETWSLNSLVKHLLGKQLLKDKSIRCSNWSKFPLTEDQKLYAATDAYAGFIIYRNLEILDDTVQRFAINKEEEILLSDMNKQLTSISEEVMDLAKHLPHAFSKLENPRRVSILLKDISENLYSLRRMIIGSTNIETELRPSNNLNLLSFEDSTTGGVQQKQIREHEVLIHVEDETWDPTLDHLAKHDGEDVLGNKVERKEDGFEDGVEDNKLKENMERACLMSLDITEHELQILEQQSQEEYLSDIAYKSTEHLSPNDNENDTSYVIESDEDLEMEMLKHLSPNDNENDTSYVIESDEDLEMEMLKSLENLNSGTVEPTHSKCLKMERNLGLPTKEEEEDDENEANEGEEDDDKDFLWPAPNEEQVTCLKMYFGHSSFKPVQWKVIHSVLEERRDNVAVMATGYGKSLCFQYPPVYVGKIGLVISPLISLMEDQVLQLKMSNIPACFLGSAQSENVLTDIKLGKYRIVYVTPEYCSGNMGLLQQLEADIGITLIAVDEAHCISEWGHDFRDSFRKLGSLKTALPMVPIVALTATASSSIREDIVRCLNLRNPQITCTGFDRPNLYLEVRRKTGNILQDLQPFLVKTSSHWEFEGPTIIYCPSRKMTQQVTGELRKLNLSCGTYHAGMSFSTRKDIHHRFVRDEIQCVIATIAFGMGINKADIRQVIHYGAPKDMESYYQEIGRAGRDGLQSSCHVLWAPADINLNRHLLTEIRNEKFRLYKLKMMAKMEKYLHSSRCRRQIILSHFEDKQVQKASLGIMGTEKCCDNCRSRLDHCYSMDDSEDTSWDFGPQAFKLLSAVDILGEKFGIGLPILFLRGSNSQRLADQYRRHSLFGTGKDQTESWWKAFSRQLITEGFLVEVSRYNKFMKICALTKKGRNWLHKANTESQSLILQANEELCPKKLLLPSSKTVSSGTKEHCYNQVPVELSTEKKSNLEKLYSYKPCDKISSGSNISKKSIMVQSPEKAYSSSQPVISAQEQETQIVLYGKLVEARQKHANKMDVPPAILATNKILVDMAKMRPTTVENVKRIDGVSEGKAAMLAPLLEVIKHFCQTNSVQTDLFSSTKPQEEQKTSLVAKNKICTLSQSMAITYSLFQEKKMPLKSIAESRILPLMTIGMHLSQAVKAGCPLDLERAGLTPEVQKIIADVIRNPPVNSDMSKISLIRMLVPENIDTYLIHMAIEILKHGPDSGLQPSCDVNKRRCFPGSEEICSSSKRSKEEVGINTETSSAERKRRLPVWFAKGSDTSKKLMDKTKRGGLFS
Chain of hWRN(519-1227)_C-H3CV-GFP-10His (Q14191 519-1227): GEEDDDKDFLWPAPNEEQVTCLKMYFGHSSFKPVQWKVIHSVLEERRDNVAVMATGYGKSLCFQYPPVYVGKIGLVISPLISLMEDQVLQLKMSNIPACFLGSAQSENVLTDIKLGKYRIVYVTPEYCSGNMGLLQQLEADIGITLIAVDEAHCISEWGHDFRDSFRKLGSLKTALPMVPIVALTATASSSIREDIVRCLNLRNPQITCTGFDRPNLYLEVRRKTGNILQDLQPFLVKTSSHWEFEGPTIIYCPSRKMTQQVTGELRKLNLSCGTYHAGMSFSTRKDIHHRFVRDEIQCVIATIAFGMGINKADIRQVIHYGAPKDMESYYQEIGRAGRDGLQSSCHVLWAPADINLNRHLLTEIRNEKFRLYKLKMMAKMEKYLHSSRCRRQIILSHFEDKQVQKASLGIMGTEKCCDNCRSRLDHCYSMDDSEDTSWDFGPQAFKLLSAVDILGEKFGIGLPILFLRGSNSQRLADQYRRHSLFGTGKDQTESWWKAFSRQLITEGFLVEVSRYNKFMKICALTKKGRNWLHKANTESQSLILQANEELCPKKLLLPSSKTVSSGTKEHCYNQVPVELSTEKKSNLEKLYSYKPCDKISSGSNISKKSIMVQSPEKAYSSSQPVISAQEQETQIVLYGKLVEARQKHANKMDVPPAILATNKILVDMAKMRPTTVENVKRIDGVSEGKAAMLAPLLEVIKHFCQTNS

| Compound | IC50 [1] | GI50 [2] | GI50 [3] | IC50 [4, 5] | IC50 [4] |
| --- | --- | --- | --- | --- | --- |
| C[C@@H](/C=C/S(C)(=O)=O)NC(=O)c1cnc(C2CCCC2)nc1OC1CCCCCC1 [Example 128, (S,E)-4-(cycloheptyloxy)-2-cyclopentyl-N-(4-(methylsulfonyl)but-3-en-2-yl)pyrimidine-5-carboxamide] | 25.1 µM | 4.2 µM | 2.5 µM | 5.9 µM | – |
| C[C@@H](/C=C/S(C)(=O)=O)NC(=O)c1cnc(C2CCCC2)nc1Oc1cccc(O)c1 [Example 136, (S,E)-2-cyclopentyl-4-(3-hydroxyphenoxy)-N-(4-(methylsulfonyl)but-3-en-2-yl)pyrimidine-5-carboxamide] | 18.5 µM | > 10 µM | 5.1 µM | 11 µM | – |
| C[C@@H](/C=C/S(C)(=O)=O)NC(=O)c1cnc(C2CCCC2)nc1Oc1ccccc1O [Example 137, (S,E)-2-cyclopentyl-4-(2-hydroxyphenoxy)-N-(4-(methylsulfonyl)but-3-en-2-yl)pyrimidine-5-carboxamide] | 10 µM | > 10 µM | 0.98 µM | 3.4 µM | – |
| C[C@@H](/C=C/S(C)(=O)=O)NC(=O)c1cnc(C(C)(C)C)nc1O[C@@H]1C[C@@H]2C[C@@H]2C1 [Example 157, 4-[[(1S,5R)-3-bicyclo[3.1.0]hexanyl]oxy]-2-tert-butyl-N—[(E,1S)-1-methyl-3-methylsulfonyl-allyl]pyrimidine-5-carboxamide] | 15 µM | > 10 µM | 1.1 µM | 4 µM | – |
| CC(C)(C)c1ncc(C(=O)N[C@H](/C=C/S(C)(=O)=O)C2CC2)c(O[C@H]2C[C@@H]3C[C@@H]3C2)n1 [Example 160, 4-(((1R,3s,5S)-bicyclo[3.1.0]hexan-3-yl)oxy)-2-(tert-butyl)-N—((S,E)-1-cyclopropyl-3-(methylsulfonyl)allyl)pyrimidine-5-carboxamide] | 6 µM | 3.4 µM | 0.15 µM | 0.9 µM | – |
| C[C@@H](/C=C/S(C)(=O)=O)NC(=O)c1cnc(OC2CCCC2)nc1Oc1ccccc1 [Example 165, (S,E)-2-(cyclopentyloxy)-N-(4-(methylsulfonyl)but-3-en-2-yl)-4-phenoxypyrimidine-5-carboxamide] | 22.6 µM | > 10 µM | 2.7 µM | 4.1 µM | – |
| C[C@@H](/C=C/S(C)(=O)=O)NC(=O)c1cnc(N2C3CCC2CC3)nc1Oc1ccccc1 [Example 166, (S,E)-2-(7-azabicyclo[2.2.1]heptan-7-yl)-N-(4-(methylsulfonyl)but-3-en-2-yl)-4-phenoxypyrimidine-5-carboxamide] | 8.93 µM | > 10 µM | 0.69 µM | 3.6 µM | – |
| C[C@@H](/C=C/S(C)(=O)=O)NC(=O)c1cnc(N2CCCC2)nc1Oc1ccccc1 [Example 168, (S,E)-N-(4-(methylsulfonyl)but-3-en-2-yl)-4-phenoxy-2-(pyrrolidin-1-yl)pyrimidine-5-carboxamide] | 9.23 µM | 17 µM | 1.6 µM | 4.4 µM | – |
| C[C@@H]1CC[C@H](C)N1c1ncc(C(=O)N[C@@H](C)/C=C/S(C)(=O)=O)c(Oc2ccccc2)n1 [Example 171, 2-((2R,5S)-2,5-dimethylpyrrolidin-1-yl)-N—((S,E)-4-(methylsulfonyl)but-3-en-2-yl)-4-phenoxypyrimidine-5-carboxamide] | 4.45 µM | 8.1 µM | 0.434 µM | 1.19 µM | – |
| C[C@@H](/C=C/S(C)(=O)=O)NC(=O)c1cnc(N2CCCC2(C)C)nc1Oc1ccccc1 [Example 174, (S,E)-2-(2,2-dimethylpyrrolidin-1-yl)-N-(4-(methylsulfonyl)but-3-en-2-yl)-4-phenoxypyrimidine-5-carboxamide] | 11.2 µM | 11 µM | 2.2 µM | 6.8 µM | – |
| C[C@@H](/C=C/S(C)(=O)=O)NC(=O)c1cnc(N2CCC[C@@H]2C)nc1Oc1ccccc1 [Example 175, 2-((S)-2-methylpyrrolidin-1-yl)-N—((S,E)-4-(methylsulfonyl)but-3-en-2-yl)-4-phenoxypyrimidine-5-carboxamide] | 20 µM | 12 µM | 2.2 µM | 6.8 µM | – |
| C[C@@H]1CCCN1c1ncc(C(=O)N[C@@H](C)/C=C/S(C)(=O)=O)c(Oc2ccccc2)n1 [Example 176, 2-((R)-2-methylpyrrolidin-1-yl)-N—((S,E)-4-(methylsulfonyl)but-3-en-2-yl)-4-phenoxypyrimidine-5-carboxamide] | 1.66 µM | 13 µM | 0.44 µM | 1.6 µM | – |
| CS(=O)(=O)/C=C/[C@@H](NC(=O)c1cnc(N2CCC2)nc1Oc1ccccc1)C1CC1 [Example 181, (S,E)-2-(azetidin-1-yl)-N-(1-cyclopropyl-3-(methylsulfonyl)allyl)-4-phenoxypyrimidine-5-carboxamide] | 27.2 µM | 17 µM | 0.0884 µM | 0.87 µM | – |
| CS(=O)(=O)/C=C/[C@@H](NC(=O)c1cnc(N2CC(F)C2)nc1Oc1ccccc1)C1CC1 [Example 182, (S,E)-N-(1-cyclopropyl-3-(methylsulfonyl)allyl)-2-(3-fluoroazetidin-1-yl)-4-phenoxypyrimidine-5-carboxamide] | 4.86 µM | 19 µM | 0.108 µM | 1.1 µM | – |
| CN(CC(F)(F)F)c1ncc(C(=O)N[C@H](/C=C/S(C)(=O)=O)C2CC2)c(Oc2ccccc2)n1 [Example 184, (S,E)-N-(1-cyclopropyl-3-(methylsulfonyl)allyl)-2-(methyl(2,2,2-trifluoroethyl)amino)-4-phenoxypyrimidine-5-carboxamide] | 1.3 µM | 3.1 µM | 0.191 µM | 2.4 µM | – |
| CCN(C)c1ncc(C(=O)N[C@H](/C=C/S(C)(=O)=O)C2CC2)c(Oc2ccccc2)n1 [Example 185, (S,E)-N-(1-cyclopropyl-3-(methylsulfonyl)allyl)-2-(ethyl(methyl)amino)-4-phenoxypyrimidine-5-carboxamide] | 1.72 µM | 5.4 µM | 0.0274 µM | 0.239 µM | – |
| CC(C)N(C)c1ncc(C(=O)N[C@H](/C=C/S(C)(=O)=O)C2CC2)c(Oc2ccccc2)n1 [Example 186, (S,E)-N-(1-cyclopropyl-3-(methylsulfonyl)allyl)-2-(isopropyl(methyl)amino)-4-phenoxypyrimidine-5-carboxamide] | 0.42 µM | 3.3 µM | 0.0195 µM | 0.2 µM | – |
| CC(=O)C=C1CN(C(=O)c2cnc(C(C)(C)C)nc2Oc2ccccc2)C1 [Example 190, 1-(1-(2-(tert-butyl)-4-phenoxypyrimidine-5-carbonyl)azetidin-3-ylidene)propan-2-one] | 0.69 µM | 5.4 µM | 0.53 µM | – | 0.31 µM |
| COC(=O)C=C1CN(C(=O)c2cnc(C(C)(C)C)nc2Oc2ccccc2)C1 [Example 191, methyl 2-(1-(2-(tert-butyl)-4-phenoxypyrimidine-5-carbonyl)azetidin-3-ylidene)acetate] | 2.19 µM | 7.4 µM | 0.26 µM | – | 0.91 µM |
| C[C@@H](/C=C/S(C)(=O)=O)NC(=O)c1cnc(C2CCCC2)nc1OC1CCCC1 [Example 197, (S,E)-2-cyclopentyl-4-(cyclopentyloxy)-N-(4-(methylsulfonyl)but-3-en-2-yl)pyrimidine-5-carboxamide] | 6.24 µM | 6.19 µM | 0.709 µM | 1.69 µM | – |
| C[C@@H](/C=C/S(C)(=O)=O)NC(=O)c1cnc(C2=CCCC2)cc1Oc1ccccc1 [Example 200, (S,E)-6-(cyclopent-1-en-1-yl)-N-(4-(methylsulfonyl)but-3-en-2-yl)-4-phenoxynicotinamide] | 21.7 µM | > 10 µM | 3.6 µM | 4.5 µM | – |
| C[C@@H](/C=C/S(C)(=O)=O)NC(=O)c1ccc(C2=CCCC2)nc1Oc1ccccc1 [Example 202, (S,E)-6-(cyclopent-1-en-1-yl)-N-(4-(methylsulfonyl)but-3-en-2-yl)-2-phenoxynicotinamide] | 75 µM | > 10 µM | 7.2 µM | 8.6 µM | – |
| CC(C)=Cc1ncc(C(=O)N[C@@H](C)/C=C/S(C)(=O)=O)c(Oc2ccccc2)n1 [Example 213, (S,E)-2-(2-methylprop-1-en-1-yl)-N-(4-(methylsulfonyl)but-3-en-2-yl)-4-phenoxypyrimidine-5-carboxamide] | > 100 µM | 12.7 µM | 2.16 µM | 11 µM | – |
| CC(C)Cc1ncc(C(=O)N[C@@H](C)/C=C/S(C)(=O)=O)c(Oc2ccccc2)n1 [Example 214, (S,E)-2-isobutyl-N-(4-(methylsulfonyl)but-3-en-2-yl)-4-phenoxypyrimidine-5-carboxamide] | > 100 µM | > 19.5 µM | 2.47 µM | 10 µM | – |
| C[C@@H](/C=C/S(C)(=O)=O)NC(=O)c1cnc(C2(O)CCCC2)nc1Oc1ccccc1 [Example 216, (S,E)-2-(1-hydroxycyclopentyl)-N-(4-(methylsulfonyl)but-3-en-2-yl)-4-phenoxypyrimidine-5-carboxamide] | 13.8 µM | > 10 µM | 2.2 µM | 7.74 µM | – |
